Source: ChEMBL document CHEMBL1155173, “Modulation of the cellular accumulation and intracellular activity of daptomycin towards phagocytized Staphylococcus aureus by the P-glycoprotein (MDR1) efflux transporter in human THP-1 macrophages and madin-darby canine kidney cells” (Antimicrob Agents Chemother, 2007)
≈ marks a conversion by molar mass, not a printed value. Calls of active or inactive are those of the source. The calls are words filed in the database; no cut-off is given here.

Columns and labels:
[1] = tested on: THP-1; experiment: Cellular uptake in methicillin-sensitive Staphylococcus aureus ATCC 25923 phagocytized in human mdr1 siRNAs- induced MDR1 deficient human THP1 cells assessed as increase accumulation at 250 mg/liter after 24 hrs by […]; type: ADME, cell-based; conditions: thp-1, 24 h
[2] = tested on: Staphylococcus aureus; experiment: Antibacterial activity against methicillin-sensitive Staphylococcus aureus ATCC 25923 phagocytized in human THP1 cells after 24 hrs in presence of 1 mg/liter daptomycin; type: functional, organism-based; conditions: THP-1
[3] = tested on: THP-1; experiment: Decrease in intracellular calcium concentration in human THP1 cells at 50 uM after 60 mins; type: functional; design: scale not given: the % may be the effect or the level left
[4] = tested on: Staphylococcus aureus; experiment: Antibacterial activity against methicillin-sensitive Staphylococcus aureus ATCC 25923 phagocytized in human THP1 cells after 24 hrs; type: functional, organism-based; conditions: ATCC 25923, THP-1, 24 h
[5] = tested on: Staphylococcus aureus; experiment: Antibacterial activity against methicillin-sensitive Staphylococcus aureus ATCC 25923 phagocytized in human THP1 cells assessed as concentration resulting in no apparent bacterial growth after 24 hrs; type: functional, THP-1
[6] = tested on: Staphylococcus aureus; experiment: Antibacterial activity against methicillin-sensitive Staphylococcus aureus ATCC 25923 phagocytized in human THP1 cells assessed as decrease in CFU at 1 mg/liter after 24 hrs; type: functional, THP-1
[7] = tested on: Staphylococcus aureus; experiment: Antibacterial activity against methicillin-sensitive Staphylococcus aureus ATCC 25923 phagocytized in human THP1 cells after 24 hrs in presence of 100 uM verapamil; type: functional, organism-based; conditions: ATCC 25923, THP-1, 24 h
[8] = tested on: THP-1; experiment: Cellular uptake in methicillin-sensitive Staphylococcus aureus ATCC 25923 phagocytized in human THP1 cells assessed as apparent cellular to extracellular concentration ratio at 250 mg/liter after 24 hrs under 2-deoxyglucose-induced ATP depleted condition by fluorimetry; type: ADME, cell-based; conditions: thp-1, 24 h
[9] = tested on: Staphylococcus aureus; experiment: Antibacterial activity against methicillin-sensitive Staphylococcus aureus ATCC 25923 phagocytized in human THP1 cells assessed as concentration resulting in no apparent bacterial growth after 24 hrs in presence of 100 uM verapamil; type: functional, THP-1
[10] = tested on: Staphylococcus aureus; experiment: Antibacterial activity against methicillin-sensitive Staphylococcus aureus ATCC 25923 phagocytized in human THP1 cells assessed as decrease in CFU at 1 mg/liter after 24 hrs in presence of 100 uM verapamil; type: functional, THP-1
[11] = tested on: Staphylococcus aureus; experiment: Antibacterial activity against methicillin-sensitive Staphylococcus aureus ATCC 25923 phagocytized in human THP1 cells after 24 hrs in presence of 0.5 uM elacridar; type: functional, organism-based; conditions: ATCC 25923, THP-1, 24 h
[12] = tested on: Staphylococcus aureus; experiment: Antibacterial activity against methicillin-sensitive Staphylococcus aureus ATCC 25923 phagocytized in human THP1 cells assessed as concentration resulting in no apparent bacterial growth after 24 hrs in presence of 0.5 uM elacridar; type: functional, THP-1
[13] = tested on: Staphylococcus aureus; experiment: Antibacterial activity against methicillin-sensitive Staphylococcus aureus ATCC 25923 phagocytized in human THP1 cells assessed as decrease in CFU at 1 mg/liter after 24 hrs in presence of 0.5 uM elacridar; type: functional, THP-1
[14] = tested on: Staphylococcus aureus; experiment: Antibacterial activity against methicillin-sensitive Staphylococcus aureus ATCC 25923 phagocytized in wild type MDCK cells after 24 hrs; type: functional, organism-based; conditions: ATCC 25923, MDCK
[15] = tested on: Staphylococcus aureus; experiment: Antibacterial activity against methicillin-sensitive Staphylococcus aureus ATCC 25923 phagocytized in wild type MDCK cells assessed as concentration resulting in no apparent bacterial growth after 24 hrs; type: functional
[16] = tested on: Staphylococcus aureus; experiment: Antibacterial activity against methicillin-sensitive Staphylococcus aureus ATCC 25923 phagocytized in wild type MDCK cells assessed as decrease in CFU at 1 mg/liter after 24 hrs; type: functional
[17] = tested on: Staphylococcus aureus; experiment: Antibacterial activity against methicillin-sensitive Staphylococcus aureus ATCC 25923 phagocytized in wild type MDCK cells after 24 hrs in presence of 100 uM verapamil; type: functional, organism-based; conditions: ATCC 25923, MDCK
[18] = tested on: Staphylococcus aureus; experiment: Antibacterial activity against methicillin-sensitive Staphylococcus aureus ATCC 25923 phagocytized in wild type MDCK cells assessed as concentration resulting in no apparent bacterial growth after 24 hrs in presence of 100 uM verapamil; type: functional
[19] = tested on: Staphylococcus aureus; experiment: Antibacterial activity against methicillin-sensitive Staphylococcus aureus ATCC 25923 phagocytized in wild type MDCK cells assessed as decrease in CFU at 1 mg/liter after 24 hrs in presence of 100 uM verapamil; type: functional
[20] = tested on: Staphylococcus aureus; experiment: Antibacterial activity against methicillin-sensitive Staphylococcus aureus ATCC 25923 phagocytized in MDCK cells over expressing human […] at 1 mg/liter after 24 hrs; type: functional, organism-based; conditions: ATCC 25923, MDCK
[21] = tested on: Staphylococcus aureus; experiment: Antibacterial activity against methicillin-sensitive Staphylococcus aureus ATCC 25923 phagocytized in MDCK cells over expressing human […] assessed as concentration resulting in no apparent bacterial growth after 24 hrs; type: functional
[22] = tested on: Staphylococcus aureus; experiment: Antibacterial activity against methicillin-sensitive Staphylococcus aureus ATCC 25923 phagocytized in MDCK cells over expressing human […] assessed as decrease in CFU at 1 mg/liter after 24 hrs; type: functional
[23] = tested on: Staphylococcus aureus; experiment: Antibacterial activity against methicillin-sensitive Staphylococcus aureus ATCC 25923 phagocytized in MDCK cells over expressing human […] after 24 hrs in presence of 100 uM verapamil; type: functional, organism-based; conditions: ATCC 25923, MDCK
[24] = tested on: Staphylococcus aureus; experiment: Antibacterial activity against methicillin-sensitive Staphylococcus aureus ATCC 25923 phagocytized in MDCK cells over expressing human […] assessed as concentration resulting in no apparent bacterial growth after 24 hrs in presence of 100 uM verapamil; type: functional
[25] = tested on: Staphylococcus aureus; experiment: Antibacterial activity against methicillin-sensitive Staphylococcus aureus ATCC 25923 phagocytized in MDCK cells over expressing human […] assessed as decrease in CFU at 1 mg/liter after 24 hrs in presence of 100 uM verapamil; type: functional
[26] = tested on: THP-1; experiment: Cellular uptake in methicillin-sensitive Staphylococcus aureus ATCC 25923 phagocytized in human THP1 cells assessed as apparent cellular to extracellular concentration ratio at 250 mg/liter after 24 hrs by fluorimetry; type: ADME, cell-based; conditions: thp-1, 24 h
[27] = tested on: THP-1; experiment: Cellular uptake in methicillin-sensitive Staphylococcus aureus ATCC 25923 phagocytized in human THP1 cells assessed as apparent cellular to extracellular concentration ratio at 250 mg/liter after 24 hrs by fluorimetry in presence of 100 uM verapamil; type: ADME, cell-based; conditions: thp-1, 24 h
[28] = tested on: THP-1; experiment: Cellular uptake in methicillin-sensitive Staphylococcus aureus ATCC 25923 phagocytized in human THP1 cells assessed as apparent cellular to extracellular concentration ratio at 250 mg/liter after 24 hrs by fluorimetry in presence of 1 uM ouabain; type: ADME, cell-based; conditions: thp-1, 24 h
[29] = tested on: THP-1; experiment: Cellular uptake in methicillin-sensitive Staphylococcus aureus ATCC 25923 phagocytized in human THP1 cells assessed as apparent cellular to extracellular concentration ratio at 250 mg/liter after 24 hrs by fluorimetry in presence of 250 uM gemfibrozil; type: ADME, cell-based; conditions: thp-1, 24 h
[30] = tested on: MDCK; experiment: Cellular uptake in methicillin-sensitive Staphylococcus aureus ATCC 25923 phagocytized in wild type MDCK cells assessed as apparent cellular to extracellular concentration ratio at 250 mg/liter after 24 hrs by fluorimetry; type: ADME, cell-based, Canis lupus familiaris; conditions: dog
[31] = tested on: MDCK; experiment: Cellular uptake in methicillin-sensitive Staphylococcus aureus ATCC 25923 phagocytized in wild type MDCK cells assessed as apparent cellular to extracellular concentration ratio at 250 mg/liter after 24 hrs by fluorimetry in presence of 100 uM verapamil; type: ADME, cell-based, Canis lupus familiaris; conditions: dog
[32] = tested on: MDCK; experiment: Cellular uptake in methicillin-sensitive Staphylococcus aureus ATCC 25923 phagocytized in wild type MDCK cells assessed as apparent cellular to extracellular concentration ratio at 250 mg/liter after 24 hrs by fluorimetry in presence of 1 uM ouabain; type: ADME, cell-based, Canis lupus familiaris; conditions: dog
[33] = tested on: MDCK; experiment: Cellular uptake in methicillin-sensitive Staphylococcus aureus ATCC 25923 phagocytized in wild type MDCK cells assessed as apparent cellular to extracellular concentration ratio at 250 mg/liter after 24 hrs by fluorimetry in presence of 250 uM gemfibrozil; type: ADME, cell-based, Canis lupus familiaris; conditions: dog
[34] = tested on: MDCK; experiment: Cellular uptake in methicillin-sensitive Staphylococcus aureus ATCC 25923 phagocytized in MDCK cells over expressing human MDR1 assessed as apparent cellular to extracellular concentration ratio at 250 mg/liter after 24 hrs by fluorimetry; type: ADME, cell-based, Canis lupus familiaris; conditions: dog
[35] = tested on: MDCK; experiment: Cellular uptake in methicillin-sensitive Staphylococcus aureus ATCC 25923 phagocytized in MDCK cells over expressing human MDR1 cells assessed as apparent cellular to extracellular concentration ratio at 250 mg/liter after 24 hrs by fluorimetry in presence of 100 uM verapamil; type: ADME, cell-based, Canis lupus familiaris; conditions: dog
[36] = tested on: MDCK; experiment: Cellular uptake in methicillin-sensitive Staphylococcus aureus ATCC 25923 phagocytized in MDCK cells over expressing human MDR1 cells assessed as apparent cellular to extracellular concentration ratio at 250 mg/liter after 24 hrs by fluorimetry in presence of 1 uM ouabain; type: ADME, cell-based, Canis lupus familiaris; conditions: dog
[37] = tested on: MDCK; experiment: Cellular uptake in methicillin-sensitive Staphylococcus aureus ATCC 25923 phagocytized in MDCK cells over expressing human MDR1 cells assessed as apparent cellular to extracellular concentration ratio at 250 mg/liter after 24 hrs by fluorimetry in presence of 250 uM gemfibrozil; type: ADME, cell-based, Canis lupus familiaris; conditions: dog
[38] = tested on: THP-1; experiment: Decrease in intracellular calcium concentration in human THP1 cells at 100 uM after 60 mins; type: functional; design: scale not given: the % may be the effect or the level left
[39] = tested on: THP-1; experiment: Decrease in intracellular calcium concentration in human THP1 cells at 250 uM after 60 mins; type: functional, cell-based

For C[C@@H]1O[C@@H](O[C@H]2C[C@@H](O)[C@]3(CO)[C@H]4[C@H](O)C[C@]5(C)[C@@H](C6=CC(=O)OC6)CC[C@]5(O)[C@@H]4CC[C@]3(O)C2)[C@H](O)[C@H](O)[C@H]1O [OUABAIN], the Activity [1] was “Active”.
In the case of COc1cc2c(cc1OC)CN(CCc1ccc(NC(=O)c3cccc4c(=O)c5cccc(OC)c5[nH]c34)cc1)CC2, the Activity [2] was “Dose-dependent effect”.
Compound C[C@H](CCC(=O)[O-])C[C@H](C)C[C@H](C)C(=O)/C=C(\[O-])[C@H](C)C[C@H](C)C/C=C/[C@@H](C)[C@@H](O)[C@@H](C)[C@@H](O)C[C@@H]1CC[C@@](C)([C@H]2CC[C@@](C)([C@@H](C)O)O2)O1.[Ca+2] [IONOMYCIN CALCIUM] has an Activity [3] of 75%.
Work on CCCCCCCCCC(=O)N[C@@H](Cc1c[nH]c2ccccc12)C(=O)N[C@H](CC(N)=O)C(=O)N[C@@H](CC(=O)O)C(=O)N[C@@H]1C(=O)NCC(=O)N[C@@H](CCCN)C(=O)N[C@@H](CC(=O)O)C(=O)N[C@H](C)C(=O)N[C@@H](CC(=O)O)C(=O)NCC(=O)N[C@H](CO)C(=O)N[C@@H]([C@H](C)CC(=O)O)C(=O)N[C@@H](CC(=O)c2ccccc2N)C(=O)O[C@@H]1C yielded an EC50 [4] of 1.14 µg/mL (≈ 0.703 µM), an Activity [5] of 1.3 mg/L and a log10cfu [6] of -1.6. The EC50 [7] was 0.31 µg/mL, the Ratio [8] was 0.82 and the Activity [9] was 0.4 mg/L. The log10cfu [10] was -1.82, the EC50 [11] was 0.27 µg/mL and the Activity [12] was 0.4 mg/L. It also gave a log10cfu [13] of -1.67, an EC50 [14] of 0.62 µg/mL (≈ 0.383 µM) and an Activity [15] of 0.6 mg/L. The log10cfu [16] was -1.7, the EC50 [17] was 0.18 µg/mL and the Activity [18] was 0.2 mg/L. The log10cfu [19] was -2.01, the EC50 [20] was 2.67 µg/mL (≈ 1.65 µM) and the Activity [21] was 2.1 mg/L. The log10cfu [22] was -1.77, the EC50 [23] was 0.7 µg/mL and the Activity [24] was 0.6 mg/L. For the same compound, the log10cfu [25] was -1.78, the Activity [2] was “Dose-dependent effect” and the Ratio [26] was 0.21. For the same compound, the Ratio [27] was 0.75, the Ratio [28] was 0.12 and the Ratio [29] was 0.18. It also gave a Ratio [30] of 0.23, a Ratio [31] of 0.83 and a Ratio [32] of 0.04. The Ratio [33] was 0.18, the Ratio [34] was 0.08 and the Ratio [35] was 0.3. For the same compound, the Ratio [36] was 0.03 and the Ratio [37] was 0.07.
COc1ccc(CCN(C)CCCC(C#N)(c2ccc(OC)c(OC)c2)C(C)C)cc1OC (stereo unspecified) [VERAPAMIL] was tested, and the Activity [2] was “Dose-dependent effect” and the Activity [38] was 25%.
For Cc1ccc(C)c(OCCCC(C)(C)C(=O)O)c1, the Activity [39] was “inactive”.
